Key:
[1] = test system: oral ulcer induced by acetic acid in rats; assay: Acetic acid-induced oral ulcer model in rats (body weight, food intake, ulcer diameter); assay type: in vivo, SD rats; settings: 0.3 mg/kg intraperitoneal once a day
From the text: Rats were anesthetized by intraperitoneal injection of 10% chloral hydrate solution. After anesthesia, 3 mm×3 mm filter paper impregnated with 100% glacial acetic acid was clung to the right buccal mucosa of rats for 45 s. After cauterization for 45 s, a round or oval white lesion of the buccal mucosa in this area was observed, indicating successful modeling.
All animals with successful modeling were randomly divided into six groups according to the ulcer area: (1) model group, 14 rats; (2) Xilei powder (15 mg/kg) group, 12 rats; (3) dexamethasone (0.3 mg/kg) group, 13 rats; (4) anemoside B4 high dose (about 60 mg/kg*3, i.e. 14 mg/suppository, one suppository/time, 3 times/day) group, 14 rats; (5) anemoside B4 medium dose (about 30 mg/kg*3, i.e. 7 mg/suppository, one suppository/time, 3 times/day) group, 14 rats; (6) anemoside B4 low dose (about 15 mg/kg*3, i.e. 3.5 mg/suppository, one suppository/time, 3 times/day) group, 14 rats; and 6 rats were included in the normal group.
24 h after modeling, drug was administrated for 3 successive days, including: local administration in Xilei powder group, once a day; intraperitoneal injection in dexamethasone group, once a day; rectal administration in anemoside B4 group, 3 times a day, and administration of blank suppository in model group, 3 times a day.
(1) General observation: daily food intake per cage was measured from the 2nd day after modeling, and animal weight was measured every 2 days. (2) Measurement of ulcer surface diameter: on the 2nd, 4th and 5th day after modeling, the diameter of ulcer surface was measured with a vernier caliper and recorded.

[2] = test system: oral ulcer induced by paclitaxel in rats; assay: Paclitaxel-induced oral ulcer model in rats (food intake, ulcer diameter); assay type: in vivo, SD rats; settings: intraperitoneal once a day for 5 days
Protocol: Rats were anesthetized by intraperitoneal injection of 10% chloral hydrate solution. After anesthesia, the oral ulcer model induced by chemotherapeutic drugs was established by injecting 50 μl of 6 mg/ml paclitaxel injection into the right buccal mucosa of rats.
All animals with successful modeling were randomly divided into model group, (7 rats), anemoside B4 high dose (about 60 mg/kg*2) group (7 rats), and normal group (6 rats).
24 h after modeling, in anemoside B4 group, rectal administration was performed, 1 suppository/time, twice a day, for 5 successive days; in dexamethasone group, intraperitoneal administration was performed, once a day, for 5 successive days; and in model group, blank suppository was given.
(1) General observation: On the day of modeling, rats were fasted but free access to water for 12 hours, while the diet was given quantitatively on the second day after modeling, and the food intake of rats in each cage was measured daily from the third day after modeling (the second day after administration). (2) Measurement of ulcer surface diameter: from the 2nd day after modeling, the diameter of ulcer surface was measured with a vernier caliper and recorded for 7 successive days.

C[C@@H]1C[C@H]2[C@@H]3CCC4=CC(=O)C=C[C@]4(C)[C@@]3(F)[C@@H](O)C[C@]2(C)[C@@]1(O)C(=O)CO [Dexamethasone]
Body weight ([1]; the 2nd day after modeling): 230 + 8.3 g | Diameter of oral ulcer ([1]; the 2nd day after modeling): 4.64 ± 0.38 mm | Food intake (g)/rat ([1]; the 3rd day after modeling): 13.4 ± 3.35 g | Body weight ([1]; the 4th day after modeling): 216 + 9.2 g | Diameter of oral ulcer ([1]; the 4th day after modeling): 3.16 ± 0.18 mm | Food intake (g)/rat ([1]; the 4th day after modeling): 8.2 ± 2.39 g | Diameter of oral ulcer ([1]; the 5th day after modeling): 2.78 ± 0.26 mm | Food intake (g)/rat ([1]; the 5th day after modeling): 12.1 ± 4.70 g | Body weight ([1]; the 6th day after modeling): 213 + 13.7 g | Diameter of oral ulcers ([2]; the 2nd day after modeling): 3.93 ± 0.48 mm | Diameter of oral ulcers ([2]; the 3rd day after modeling): 4.00 ± 0.40 mm | Food intake/rat ([2]; the 3rd day after modeling): 13.78 ± 3.83 g | Diameter of oral ulcers ([2]; the 4th day after modeling): 3.88 ± 0.58 mm | Food intake/rat ([2]; the 4th day after modeling): 10.61 ± 2.48 g | Diameter of oral ulcers ([2]; the 5th day after modeling): 3.50 ± 0.87 mm | Food intake/rat ([2]; the 5th day after modeling): 13.91 ± 1.92 g | Diameter of oral ulcers ([2]; the 6th day after modeling): 3.26 ± 0.84 mm | Food intake/rat ([2]; the 6th day after modeling): 19.84 ± 1.14 g | Diameter of oral ulcers ([2]; the 7th day after modeling): 2.85 ± 0.81 mm | Food intake/rat ([2]; the 7th day after modeling): 18.79 ± 0.56 g

From US20230102973A1, “Medical Use of Anemoside B4 in the Treatment of Oral Ulcers” (priority 2020, published 2023)
